Columns and labels:
Assay in all cases: relative viability (nuclei count vs DMSO), 5 days (fraction); higher = more cells survive
NCI-H358 = test system: NCI-H358
Summary of the method: (§1)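 For relative viability, nuclei counts in treated wells were divided by those in vehicle wells. Lung cancer cell lines had been pin-tool dosed in 1536-well plates the day after seeding and cultured for 5 days, then fixed and stained in one step (final 0.05% Triton X-100, 1% formaldehyde, 1 ug/ml Hoechst) and imaged at 4×. Doses were one drug alone or a fixed anchor-drug dose plus five library-drug doses (not always all listed) in √10 steps, and values are duplicate-plate medians.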

NCI-H2085 = test system: NCI-H2085
Summary of the method: as §1

NCI-H1915 = test system: NCI-H1915
Summary of the method: as §1

UMC-11 = test system: UMC-11
Summary of the method: as §1

HCC-78 = test system: HCC-78
Summary of the method: as §1

COR-L 105 = test system: COR-L 105
Summary of the method: as §1

NCI-H441 = test system: NCI-H441
Summary of the method: as §1

NCI-H1993 = test system: NCI-H1993
Summary of the method: as §1

LXF-289 = test system: LXF-289
Summary of the method: as §1

EPLC-272H = test system: EPLC-272H
Summary of the method: as §1

HOP-62 = test system: HOP-62
Summary of the method: as §1

NCI-H2023 = test system: NCI-H2023
Summary of the method: as §1

SMILES: NC(=O)Nc1cc(-c2cccc(F)c2)sc1C(=O)N[C@H]1CCCNC1 [AZD7762] + CS(=O)(=O)N1CCN(Cc2cc3nc(-c4cccc5[nH]ncc45)nc(N4CCOCC4)c3s2)CC1 [Pictilisib] (partner 1 µM)
- relative viability (NCI-H358; first compound 0.1 µM): 0.35
- relative viability (NCI-H358; first compound 0.3162 µM): 0.325
- relative viability (NCI-H358; first compound 1 µM): 0.267
- relative viability (NCI-H2085; first compound 0.01 µM): 0.407
- relative viability (NCI-H2085; first compound 0.03162 µM): 0.507
- relative viability (NCI-H2085; first compound 0.1 µM): 0.486
- relative viability (NCI-H2085; first compound 0.3162 µM): 0.516
- relative viability (NCI-H2085; first compound 1 µM): 0.361
- relative viability (NCI-H1915; first compound 0.01 µM): 0.931
- relative viability (NCI-H1915; first compound 0.03162 µM): 0.96
- relative viability (NCI-H1915; first compound 0.1 µM): 1.02
- relative viability (NCI-H1915; first compound 0.3162 µM): 0.918
- relative viability (NCI-H1915; first compound 1 µM): 0.924
- relative viability (UMC-11; first compound 0.01 µM): 0.753
- relative viability (UMC-11; first compound 0.03162 µM): 0.768
- relative viability (UMC-11; first compound 0.1 µM): 0.848
- relative viability (UMC-11; first compound 0.3162 µM): 0.679
- relative viability (UMC-11; first compound 1 µM): 0.393
- relative viability (HCC-78; first compound 0.01 µM): 0.241
- relative viability (HCC-78; first compound 0.03162 µM): 0.228
- relative viability (HCC-78; first compound 0.1 µM): 0.205
- relative viability (HCC-78; first compound 0.3162 µM): 0.213
- relative viability (HCC-78; first compound 1 µM): 0.18
- relative viability (COR-L 105; first compound 0.01 µM): 0.486
- relative viability (COR-L 105; first compound 0.03162 µM): 0.365
- relative viability (COR-L 105; first compound 0.1 µM): 0.31
- relative viability (COR-L 105; first compound 0.3162 µM): 0.353
- relative viability (COR-L 105; first compound 1 µM): 0.242
- relative viability (NCI-H441; first compound 0.01 µM): 0.494
- relative viability (NCI-H441; first compound 0.03162 µM): 0.594
- relative viability (NCI-H441; first compound 0.1 µM): 0.7
- relative viability (NCI-H441; first compound 0.3162 µM): 0.556
- relative viability (NCI-H441; first compound 1 µM): 0.555
- relative viability (NCI-H1993; first compound 0.01 µM): 0.823
- relative viability (NCI-H1993; first compound 0.03162 µM): 0.925
- relative viability (NCI-H1993; first compound 0.1 µM): 0.717
- relative viability (NCI-H1993; first compound 0.3162 µM): 0.725
- relative viability (NCI-H1993; first compound 1 µM): 0.704
- relative viability (LXF-289; first compound 0.01 µM): 0.754
- relative viability (LXF-289; first compound 0.03162 µM): 0.875
- relative viability (LXF-289; first compound 0.1 µM): 0.809
- relative viability (LXF-289; first compound 0.3162 µM): 0.855
- relative viability (LXF-289; first compound 1 µM): 0.813
- relative viability (EPLC-272H; first compound 0.01 µM): 0.309
- relative viability (EPLC-272H; first compound 0.03162 µM): 0.377
- relative viability (EPLC-272H; first compound 0.1 µM): 0.291
- relative viability (EPLC-272H; first compound 0.3162 µM): 0.316
- relative viability (EPLC-272H; first compound 1 µM): 0.247
- relative viability (HOP-62; first compound 0.01 µM): 0.501
- relative viability (HOP-62; first compound 0.03162 µM): 0.801
- relative viability (HOP-62; first compound 0.1 µM): 0.833
- relative viability (HOP-62; first compound 0.3162 µM): 0.645
- relative viability (HOP-62; first compound 1 µM): 0.268
- relative viability (NCI-H2023; first compound 0.01 µM): 0.228
- relative viability (NCI-H2023; first compound 0.03162 µM): 0.227
- relative viability (NCI-H2023; first compound 0.1 µM): 0.176
- relative viability (NCI-H2023; first compound 0.3162 µM): 0.11
- relative viability (NCI-H2023; first compound 1 µM): 0.091
